Consider 15 compounds from PMC5216056 (Nature Communications, 2017).

Where only a bound is given, the exact number is not on record here.

The target of one experiment is T1, mCB1R (Mus musculus, UniProt P47746).
T1 construct: from tissue; host or cells: brain of male C57BL/6J mice
T1 sequence (P47746 whole entry): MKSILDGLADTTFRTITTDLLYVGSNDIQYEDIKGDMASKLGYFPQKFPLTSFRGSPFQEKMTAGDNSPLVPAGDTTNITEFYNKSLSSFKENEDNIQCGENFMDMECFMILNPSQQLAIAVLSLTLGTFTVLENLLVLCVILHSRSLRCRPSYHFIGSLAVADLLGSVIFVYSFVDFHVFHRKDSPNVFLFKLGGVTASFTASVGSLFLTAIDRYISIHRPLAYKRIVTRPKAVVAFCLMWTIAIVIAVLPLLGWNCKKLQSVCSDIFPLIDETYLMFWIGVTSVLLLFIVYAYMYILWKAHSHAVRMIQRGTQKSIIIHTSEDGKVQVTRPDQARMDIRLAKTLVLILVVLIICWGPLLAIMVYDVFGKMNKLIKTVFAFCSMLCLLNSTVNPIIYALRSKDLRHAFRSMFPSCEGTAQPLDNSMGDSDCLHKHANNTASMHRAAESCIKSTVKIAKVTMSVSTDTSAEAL
Put plainly: biochemical.
Conditions: not given
It is filed as binding.
Turning to `CN1CCCCC1Cn1cc(C(=O)c2cc([N+](=O)[O-])ccc2I)c2ccccc21` (racemic) [(rac)-AM1241], the “pKi ± SEM mCB1R” value was determined as 5.91 ± 0.16.

In the case of `CCCCCCC(C)(C)c1ccc([C@@H]2C[C@H](O)CC[C@H]2CCCO)c(O)c1` [CP55940], the Ki was 0.00158 µM.

As to `CCCCCCC(C)(C)c1cc(OC)c([C@@H]2C=C(CO)[C@@H]3C[C@H]2C3(C)C)c(OC)c1` [HU308], the Ki is 0.832 µM.

With `CCCC(C)(C)c1ccc2c(c1)OC(C)(C)[C@@H]1CC=C(C)C[C@@H]21` [JWH133], the “pKi ± SEM mCB1R” value turned out to be 6.09 ± 0.13.

Still in this experiment, the particulars now being: mouse brain membranes.
With `CN1CCCC[C@@H]1Cn1cc(C(=O)c2cc([N+](=O)[O-])ccc2I)c2ccccc21` [(R)-AM1241], the “pKi ± SEM mCB1R” value stood at 6.36 ± 0.13.

Regarding `CN1CCCC[C@H]1Cn1cc(C(=O)c2cc([N+](=O)[O-])ccc2I)c2ccccc21` [(S)-AM1241], the “pKi ± SEM mCB1R” value is reported as 6.48 ± 0.08.

Take `COc1ccc(C(=O)c2c(C)n(CCN3CCOCC3)c3cc(I)ccc23)cc1` [AM630]: the “pKi ± SEM mCB1R” value was 5.6 ± 0.298.

As to `Cc1ccc2c(c1)Cc1c(C(=O)NN3CCCCC3)nn(-c3ccc(Cl)cc3Cl)c1-2` [Gp-1a], the “pKi ± SEM mCB1R” value turned out to be 6.37 ± 0.08.

With `CCCCCCC(C)(C)c1cc(OC)c(C2=C[C@H]3CC[C@]2(CO)C3(C)C)c(OC)c1` [HU910], the “pKi ± SEM mCB1R” value is on record as 6.14±0.13.

`CCCn1c(C)c(C(=O)c2cccc3ccccc23)c2ccccc21` [JWH015]: the “pKi ± SEM mCB1R” value stood at 5.94 ± 0.15.

Staying with this experiment, now noted: mouse brain membranes; read-out: pKi ± SEM mCB1R (converted).
Consider `CCCCC/C=C\C/C=C\C/C=C\C/C=C\CCCC(=O)OC(CO)CO` [2-AG, 2-arachidonoyl glycerol], for which the Ki was 0.102 µM.

Another experiment addresses T2, A1 (h) (Homo sapiens, UniProt P30542).
T2 construct: CEREP
T2 sequence (P30542 1-326): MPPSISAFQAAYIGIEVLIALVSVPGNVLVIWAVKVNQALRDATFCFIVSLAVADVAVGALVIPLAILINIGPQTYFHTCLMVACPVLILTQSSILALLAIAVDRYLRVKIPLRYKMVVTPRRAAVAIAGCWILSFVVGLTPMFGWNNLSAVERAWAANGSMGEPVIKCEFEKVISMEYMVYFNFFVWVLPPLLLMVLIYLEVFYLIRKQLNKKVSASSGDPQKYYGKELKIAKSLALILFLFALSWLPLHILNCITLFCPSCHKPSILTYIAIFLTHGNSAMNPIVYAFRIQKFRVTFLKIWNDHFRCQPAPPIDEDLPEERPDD
Put plainly: CEREP panel. Format: binding. Conditions: 10 µM.
`CN1CCCC[C@H]1Cn1cc(C(=O)c2cc([N+](=O)[O-])ccc2I)c2ccccc21` [(S)-AM1241]: the “% inhibition A1 (h)” value is recorded as 14%.

As for `Cc1c(C(=O)NN2CCCCC2)nn(-c2ccc(Cl)cc2Cl)c1-c1ccc(I)cc1` [AM251], the “% inhibition A1 (h)” value was found to be 27%.

Regarding `COc1ccc(C(=O)c2c(C)n(CCN3CCOCC3)c3cc(I)ccc23)cc1` [AM630], the “% inhibition A1 (h)” value worked out at 28%.

Take `Cc1ccc2c(c1)Cc1c(C(=O)NN3CCCCC3)nn(-c3ccc(Cl)cc3Cl)c1-2` [Gp-1a]: the “% inhibition A1 (h)” value amounted to 25%.

Regarding `CCCCCCC(C)(C)c1cc(OC)c(C2=C[C@H]3CC[C@]2(CO)C3(C)C)c(OC)c1` [HU910], the “% inhibition A1 (h)” value was 23%.

With `CCCn1c(C)c(C(=O)c2cccc3ccccc23)c2ccccc21` [JWH015], the “% inhibition A1 (h)” value came out at 10%.

Take `CCCC(C)(C)c1ccc2c(c1)OC(C)(C)[C@@H]1CC=C(C)C[C@@H]21` [JWH133]: the “% inhibition A1 (h)” value was -6%.

As for `Cc1c(C(=O)c2cccc3ccccc23)c2cccc3c2n1[C@H](CN1CCOCC1)CO3` [WIN55212-2], the “% inhibition A1 (h)” value turned out to be 10%.

SR144528: the “% inhibition A1 (h)” value was 4%.

Still in this experiment, the particulars now being: 10 µM; read-out: % inhibition A1 (h).
Turning to `CCCCCCC(C)(C)c1ccc([C@@H]2C[C@H](O)CC[C@H]2CCCO)c(O)c1` [CP55940], the inhibition at 10 µM turned out to be 21%.

Staying with this experiment, now noted: read-out: % inhibition A1 (h).
Consider `CCCCCCC(C)(C)c1cc(OC)c([C@@H]2C=C(CO)[C@@H]3C[C@H]2C3(C)C)c(OC)c1` [HU308], for which the inhibition at 10 µM was 5%.

Another experiment addresses T3, alpha 2A (h) (Homo sapiens, UniProt P08913).
T3 construct: CEREP
T3 sequence (P08913 1-465): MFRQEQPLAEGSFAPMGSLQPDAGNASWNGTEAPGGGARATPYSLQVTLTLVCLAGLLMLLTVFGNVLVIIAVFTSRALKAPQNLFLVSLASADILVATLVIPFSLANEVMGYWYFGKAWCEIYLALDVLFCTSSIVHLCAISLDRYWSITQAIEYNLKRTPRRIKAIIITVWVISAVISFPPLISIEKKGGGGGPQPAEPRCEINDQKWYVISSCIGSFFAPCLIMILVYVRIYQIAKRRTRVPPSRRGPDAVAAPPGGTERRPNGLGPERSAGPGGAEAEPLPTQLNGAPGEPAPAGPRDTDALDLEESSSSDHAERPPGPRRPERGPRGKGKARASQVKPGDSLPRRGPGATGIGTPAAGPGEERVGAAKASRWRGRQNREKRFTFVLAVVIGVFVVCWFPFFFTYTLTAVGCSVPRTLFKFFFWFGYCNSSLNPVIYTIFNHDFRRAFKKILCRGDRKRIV
Put plainly: CEREP panel. It is filed as binding. To be noted: 10 µM.
`CN1CCCC[C@H]1Cn1cc(C(=O)c2cc([N+](=O)[O-])ccc2I)c2ccccc21` [(S)-AM1241]: the “% inhibition alpha 2A (h)” value is 10%.

With `Cc1c(C(=O)NN2CCCCC2)nn(-c2ccc(Cl)cc2Cl)c1-c1ccc(I)cc1` [AM251], the “% inhibition alpha 2A (h)” value amounted to 30%.

Turning to `COc1ccc(C(=O)c2c(C)n(CCN3CCOCC3)c3cc(I)ccc23)cc1` [AM630], the “% inhibition alpha 2A (h)” value is -5%.

As for `Cc1ccc2c(c1)Cc1c(C(=O)NN3CCCCC3)nn(-c3ccc(Cl)cc3Cl)c1-2` [Gp-1a], the “% inhibition alpha 2A (h)” value is reported as 30%.

`CCCCCCC(C)(C)c1cc(OC)c(C2=C[C@H]3CC[C@]2(CO)C3(C)C)c(OC)c1` [HU910]: the “% inhibition alpha 2A (h)” value turned out to be 7%.

`CCCn1c(C)c(C(=O)c2cccc3ccccc23)c2ccccc21` [JWH015]: the “% inhibition alpha 2A (h)” value turned out to be 1%.

For the compound `CCCC(C)(C)c1ccc2c(c1)OC(C)(C)[C@@H]1CC=C(C)C[C@@H]21` [JWH133], the “% inhibition alpha 2A (h)” value is -18%.

As for `Cc1c(C(=O)c2cccc3ccccc23)c2cccc3c2n1[C@H](CN1CCOCC1)CO3` [WIN55212-2], the “% inhibition alpha 2A (h)” value was determined as 0%.

With SR144528, the “% inhibition alpha 2A (h)” value is listed as -5%.

The same experiment, now with this note: 10 µM; read-out: % inhibition alpha 2A (h).
Regarding `CCCCCCC(C)(C)c1ccc([C@@H]2C[C@H](O)CC[C@H]2CCCO)c(O)c1` [CP55940], the inhibition at 10 µM was determined as 23%.

The same experiment, now with this note: read-out: % inhibition alpha 2A (h).
Turning to `CCCCCCC(C)(C)c1cc(OC)c([C@@H]2C=C(CO)[C@@H]3C[C@H]2C3(C)C)c(OC)c1` [HU308], the inhibition at 10 µM was -6%.

Another experiment addresses T4, hABHD12 (Homo sapiens, UniProt Q8N2K0).
T4 construct: expressed in transfected cells
T4 sequence (Q8N2K0 1-398): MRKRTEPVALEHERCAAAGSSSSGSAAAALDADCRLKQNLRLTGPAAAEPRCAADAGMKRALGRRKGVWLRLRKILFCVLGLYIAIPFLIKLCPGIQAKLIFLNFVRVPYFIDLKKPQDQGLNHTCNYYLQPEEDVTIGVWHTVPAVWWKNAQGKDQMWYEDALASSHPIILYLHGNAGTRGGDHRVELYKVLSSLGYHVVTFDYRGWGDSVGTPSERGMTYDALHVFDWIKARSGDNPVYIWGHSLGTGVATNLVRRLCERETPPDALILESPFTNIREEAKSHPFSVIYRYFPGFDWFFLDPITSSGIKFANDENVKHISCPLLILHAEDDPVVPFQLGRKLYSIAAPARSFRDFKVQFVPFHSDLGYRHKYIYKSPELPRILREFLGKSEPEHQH
The experiment can be described thus: ABHD12 activity.
Conditions: not given
It is filed as biochemical. The text has this:
HEK293T cells were obtained from American Type Culture Collection (ATCC, Manassas, VA, USA). Lipofectamine 2000 was obtained from Life Technologies (Carlsbad, CA, USA) and geneticin from InvivoGen. Cell culture medium, FBS, and cell culture supplements were from Invitrogen (Carlsbad, CA, USA). pCMV6-AC-hABHD6 and pCMV6-XL4-hABHD12 were a kind gift from Prof Jarmo T. Laitinen. hABHD12 sequence was subsequently inserted in a pcDNA3.1 plasmid in order to generate a stable cell line. The effect of CB2R ligands on ABHD6 and ABHD12 hydrolytic activity was determined using cell homogenate from hABHD6 and hABHD12 overexpressing HEK293T cells (40 μg total protein per condition). Samples were pre-incubated with the compounds (10 μM in the screening assay and concentrations in the range 1 nM—50 μM for the dose-response curves) in […] (pH=7.6) buffer containing 0.1%(w/v) BSA. DMSO was used as vehicle control and WWL70 10 μM or THL 20 μM as positive controls. [^3H]-2-OG (10 μM final concentration) was added and after incubation of 5 min at 37 °C, the reaction was stopped by the addition of 400 μl of ice-cold CHCl3:MeOH (1:1). The samples were vortex and centrifuged (16,100g 10 min 4 °C). Aliquots (200 μl) of the aqueous phase were assayed for tritium content by liquid scintillation spectroscopy. The values obtained for each measurement were corrected for non-specific hydrolysis (non-ABHD6 mediated) by subtracting the signal obtained in the hydrolysis of [^3H]- 2-OG by non-transfected HEK293T.
In turn, `Cc1c(C(=O)NN2CCCCC2)nn(-c2ccc(Cl)cc2Cl)c1-c1ccc(Cl)cc1` [SR141716A] registered a 50% inhibitory concentration (IC50) of 6.1 µM.

The experiment is the same for the next values; noted with them: read-out: ABHD12 IC50 (95% CI); full dose-response.
On to `Cc1c(C(=O)NN2CCCCC2)nn(-c2ccc(Cl)cc2Cl)c1-c1ccc(I)cc1` [AM251], for which the IC50 was determined as 1.6 µM.

Consider `Cc1ccc2c(c1)Cc1c(C(=O)NN3CCCCC3)nn(-c3ccc(Cl)cc3Cl)c1-2` [Gp-1a], for which the IC50 amounted to 0.8 µM.

The same experiment, now with this note: single point.
With SR144528, the ABHD12 % inhibition was less than 25%.

The experiment is the same for the next values; noted with them: single point, 10 5 µM [sic].
The compound `CN1CCCC[C@@H]1Cn1cc(C(=O)c2cc([N+](=O)[O-])ccc2I)c2ccccc21` [(R)-AM1241] yielded an ABHD12 % inhibition of less than 25%.

Turning to `CN1CCCC[C@H]1Cn1cc(C(=O)c2cc([N+](=O)[O-])ccc2I)c2ccccc21` [(S)-AM1241], the ABHD12 % inhibition is listed as less than 25%.

Take `COc1ccc(C(=O)c2c(C)n(CCN3CCOCC3)c3cc(I)ccc23)cc1` [AM630]: the ABHD12 % inhibition is on record as less than 25%.

As to `CCCCCCC(C)(C)c1cc(OC)c(C2=C[C@H]3CC[C@]2(CO)C3(C)C)c(OC)c1` [HU910], the ABHD12 % inhibition is on record as less than 25%.

In turn, `Cc1c(C(=O)c2cccc3ccccc23)c2cccc3c2n1[C@H](CN1CCOCC1)CO3` [WIN55212-2] returned an ABHD12 % inhibition of less than 50%.

Another experiment relates to Ca2+ channel (L, diltiazem site). Put plainly: CEREP panel. It is filed as binding. To be noted: 10 µM.
As for `CN1CCCC[C@H]1Cn1cc(C(=O)c2cc([N+](=O)[O-])ccc2I)c2ccccc21` [(S)-AM1241], the “% inhibition Ca2+ channel (L, diltiazem site)” value (“% inhibition Ca2+ channel” below) is 90%.

With `COc1ccc(C(=O)c2c(C)n(CCN3CCOCC3)c3cc(I)ccc23)cc1` [AM630], the “% inhibition Ca2+ channel” value was -11%.

Turning to `CCCCCCC(C)(C)c1ccc([C@@H]2C[C@H](O)CC[C@H]2CCCO)c(O)c1` [CP55940], the “% inhibition Ca2+ channel” value is listed as -7%.

For the compound `Cc1ccc2c(c1)Cc1c(C(=O)NN3CCCCC3)nn(-c3ccc(Cl)cc3Cl)c1-2` [Gp-1a], the “% inhibition Ca2+ channel” value stood at 34%.

In the case of `CCCn1c(C)c(C(=O)c2cccc3ccccc23)c2ccccc21` [JWH015], the “% inhibition Ca2+ channel” value was 33%.

On to `Cc1c(C(=O)c2cccc3ccccc23)c2cccc3c2n1[C@H](CN1CCOCC1)CO3` [WIN55212-2], for which the “% inhibition Ca2+ channel” value was 55%.

Take SR144528: the “% inhibition Ca2+ channel” value was determined as 10%.

As a reminder, the inhibition is the drop in the measured response relative to a control, in per cent. By IC50 is commonly meant the concentration needed to halve the response being measured.
